Where two headings read alike, the source gives them in different places.
Key:
μ receptor [1] = molecular target: T1, μ receptor (Cavia porcellus, UniProt A0ACM8Q262); details: read-out: antagonist activity apparent Ki (nM ± SD) μ; inhibition of DAMGO (10 μM) stimulated [35S]GTP-γ-S binding
κ receptor [2] = molecular target: T2, κ receptor (Cavia porcellus, UniProt P41144); experiment: biochemical
[3] = molecular target: μ receptor (guinea pig ileum) (Cavia porcellus, UniProt A0ACM8Q262); details: data from Ananthan et al. (I), cited from earlier work
opioid κ receptor [4] = molecular target: T3, opioid κ receptor (Cavia porcellus, UniProt P41144); details: data from Ananthan et al. (I); cited from earlier work
[5] = molecular target: T4, δ receptor (mouse vas deferens) (Mus musculus, UniProt P32300); set-up: from tissue; host or cells: mouse vas deferens (male ICR mice); details: DPDPE as agonist; data from Ananthan et al. (I); cited from earlier work
[6] = molecular target: T4, δ receptor (mouse vas deferens); details: percentage inhibition of contraction at 1 μM; data from Ananthan et al. (I); cited from earlier work
opioid μ receptor [7] = molecular target: T5, opioid μ receptor (Rattus norvegicus, UniProt P33535); details: data from Ananthan et al. (I); cited from earlier work
opioid κ receptor [8] = molecular target: T3, opioid κ receptor; details: for selectivity ratio κ/δ: ratio of binding Ki values; for Ki: read-out: Ki (nM) ± SEM κ, displacement of [3H]U69,593 (1.2-[…]), guinea pig brain membranes
opioid δ receptor = molecular target: T6, opioid δ receptor (Rattus norvegicus, UniProt P33533); experiment: Opioid δ receptor binding, [3H]DADLE displacement in rat brain membranes
T6 construct: Rat membranes are prepared each day using a partially thawed frozen rat brain; from tissue; host or cells: rat brain membranes

[9] = molecular target: T4, δ receptor (mouse vas deferens); experiment: Mouse vas deferens (MVD) smooth muscle bioassay; details: inhibition of electrically stimulated contractions; read-out: agonist activity MVD (δ) IC50
Protocol: (§1) Bioassays in Smooth Muscle Preparations. The functional activity profiles of selected ligands are also determined in the mouse vas deferens (MVD) and guinea pig ileum (GPI) smooth muscle preparations as described previously.
(§2) The agonist activity is determined by the ability of the compound to inhibit electrically stimulated contractions of the GPI and MVD. The GPI is primarily a μ receptor preparation, even though the ileum does also contain κ receptors. In the MVD, the opioid effects are predominantly mediated through δ receptors, but μ and κ receptors also exist in this tissue.
(§3) Tissues came from male ICR mice weighing 25-40 g and male Hartley guinea pigs weighing 250-500 g. The tissues are tied to gold chain with suture silk, suspended in 20 mL baths containing 37° C. oxygenated (95% O2, 5% CO2) Krebs bicarbonate solution (magnesium free for the MVD), and allowed to equilibrate for 15 min. The tissues are then stretched to optimal length previously determined to be 1 g tension (0.5 g for MVD) and allowed to equilibrate for 15 min. The tissues are stimulated transmurally between platinum wire electrodes at 0.1 Hz, 0.4 ms pulses (2-ms pulses for MVD), and supramaximal voltage. […] Tissues not producing typical results are not used. Experimental compounds were added to the baths in 14-60 μL volumes. Succeeding doses of agonist are added cumulatively to the bath at 3 min intervals to produce a concentration-response curve. The tissues are then washed extensively with fresh buffer until the original contraction height is reestablished. […] The tissues are then washed with fresh buffer for 30 min, and the agonist dose-response curve was repeated. Rightward shifts in the dose-response curves are calculated by dividing the antagonized dose-response curve IC50 value by the unantagonized IC50 value. IC50 values represent the mean of two to four tissues. IC50 estimates and their associated standard errors are determined by using a computerized nonlinear least-squares method. (MINSQ Least Squares Parameter Estimation, version 3.05; MicroMath Inc., 1999.)

δ receptor [10] = molecular target: T7, δ receptor (Cavia porcellus, UniProt A0A286XTF2); experiment: biochemical
μ receptor [11] = molecular target: T1, μ receptor; experiment: biochemical; details: read-out: agonist activity Emax % μ
δ receptor [12] = molecular target: T7, δ receptor; details: for maximum percentage inhibition of SNC-80 stimulated [35S]GTP-γ-S binding: δ receptors, partial inhibition with increasing concentrations
mice = experiment: 55° C. tail-flick antinociception test in mice; details: for naloxone sensitivity: naloxone 10 mg/kg ip, -10 min, yes = greater than 80% reduction in the antinociceptive effect
Protocol: Analgesic Testing and Assessment of Tolerance Development. The analgesic activity of selected ligands is tested in mice using the 55° C. tail-flick test as previously described. (See Wells et al., supra.) The test compounds are administered by the intracerbroventricular (icv) route. […] To determine whether the analgesic activity of the tested compounds is mediated through opioid receptors, the blockade of antinociceptive activity by pretreatment with naloxone is carried out. The analgesic activity was considered as naloxone sensitive if greater than 80% reduction in the antinociceptive response is observed.
Antinociceptive Studies. Male ICR mice (Harlan) are used for all evaluations. Mice are housed in a temperature and humidity controlled vivarium on a 12:12 h light:dark cycle with unlimited access to food and water prior to the formal procedures. […] The dihydrochloride salt of 7h is dissolved in water and injected in a volume of 5 μL. All other compounds are dissolved in 100% DMSO and injected in a volume of 5 μL. Antinociceptive assays are performed at various times after injection.
Percent antinociception is calculated using the formula: % MPE (maximal possible effect)=100×(test−control)/(cutoff−control) where control is the predrug observation, test is the postdrug observation, and cutoff is the maximal length of stimulus allowed (10 s for 55° C. tail-flick). Antinociceptive A50 values and 95% confidence intervals are determined using linear regression software (FlashCalc). Opioid activity of the test compounds are assessed by pretreating animals with naloxone (10 mg/kg ip, −10 min) followed by an icv injection of an approximate A90 dose of test compound. […] Antinociception is assessed in the 55° C. tail-flick test at 10, 20 and 30 min. A positive response to a fixed dose of naloxone is indicated when greater than 80% reduction in the antinociceptive effect of the agonist is observed.

opioid μ receptor [13] = molecular target: T5, opioid μ receptor; details: for selectivity ratio μ/δ: ratio of binding Ki values; for Ki: read-out: Ki (nM) ± SEM μ, displacement of [3H]DAMGO (1.4-3.0 nM), rat brain membranes
[14] = molecular target: T4, δ receptor (mouse vas deferens); experiment: Mouse vas deferens (MVD) smooth muscle bioassay; set-up: from tissue; host or cells: mouse vas deferens (male ICR mice); details: for antagonist activity MVD (δ) Ke: DPDPE as agonist, 1 μM compound, 30 min preincubation
Protocol: as §1, §2, §3

opioid κ receptor [15] = molecular target: T3, opioid κ receptor; experiment: biochemical
opioid μ receptor [16] = molecular target: T5, opioid μ receptor; experiment: biochemical
κ receptor [17] = molecular target: T2, κ receptor
[18] = displacement of [3H]DADLE (1.3-2.0 nM), rat brain membranes, 100 nM DAMGO to block μ sites, read-out: Ki (nM) ± SEM δ

T6 sequence (P33533 whole entry): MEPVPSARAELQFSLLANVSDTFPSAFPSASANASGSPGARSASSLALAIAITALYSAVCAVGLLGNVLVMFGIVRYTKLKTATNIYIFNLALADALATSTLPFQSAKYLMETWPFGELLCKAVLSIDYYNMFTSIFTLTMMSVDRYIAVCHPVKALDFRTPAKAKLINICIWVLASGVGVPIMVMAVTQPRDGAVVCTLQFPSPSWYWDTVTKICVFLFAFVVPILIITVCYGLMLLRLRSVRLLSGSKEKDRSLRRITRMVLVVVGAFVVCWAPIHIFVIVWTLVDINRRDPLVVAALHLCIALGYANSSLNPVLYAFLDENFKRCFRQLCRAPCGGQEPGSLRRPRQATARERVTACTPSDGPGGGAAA
T5 sequence (P33535 whole entry): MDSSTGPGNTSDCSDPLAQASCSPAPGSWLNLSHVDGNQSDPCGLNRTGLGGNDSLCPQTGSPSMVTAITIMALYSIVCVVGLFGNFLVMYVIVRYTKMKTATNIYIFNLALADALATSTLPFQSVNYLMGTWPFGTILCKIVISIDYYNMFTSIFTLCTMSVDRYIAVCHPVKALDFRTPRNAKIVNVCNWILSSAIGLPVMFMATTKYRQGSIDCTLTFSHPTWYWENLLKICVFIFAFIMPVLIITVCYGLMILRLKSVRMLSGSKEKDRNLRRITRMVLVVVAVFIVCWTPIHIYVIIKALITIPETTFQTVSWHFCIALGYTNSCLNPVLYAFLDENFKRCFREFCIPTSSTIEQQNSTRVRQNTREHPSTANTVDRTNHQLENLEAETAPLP
T1 sequence (A0ACM8Q262 1-400): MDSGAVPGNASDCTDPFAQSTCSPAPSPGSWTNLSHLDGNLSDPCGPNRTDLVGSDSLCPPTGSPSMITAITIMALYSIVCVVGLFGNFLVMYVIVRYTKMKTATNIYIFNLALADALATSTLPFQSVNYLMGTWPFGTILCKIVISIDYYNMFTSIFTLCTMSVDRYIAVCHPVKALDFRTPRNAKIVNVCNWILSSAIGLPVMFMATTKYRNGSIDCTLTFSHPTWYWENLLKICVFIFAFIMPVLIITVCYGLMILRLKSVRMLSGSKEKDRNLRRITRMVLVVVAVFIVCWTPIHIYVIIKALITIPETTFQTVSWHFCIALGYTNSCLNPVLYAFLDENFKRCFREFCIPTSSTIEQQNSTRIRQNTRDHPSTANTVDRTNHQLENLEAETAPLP
T3 sequence (P41144 whole entry): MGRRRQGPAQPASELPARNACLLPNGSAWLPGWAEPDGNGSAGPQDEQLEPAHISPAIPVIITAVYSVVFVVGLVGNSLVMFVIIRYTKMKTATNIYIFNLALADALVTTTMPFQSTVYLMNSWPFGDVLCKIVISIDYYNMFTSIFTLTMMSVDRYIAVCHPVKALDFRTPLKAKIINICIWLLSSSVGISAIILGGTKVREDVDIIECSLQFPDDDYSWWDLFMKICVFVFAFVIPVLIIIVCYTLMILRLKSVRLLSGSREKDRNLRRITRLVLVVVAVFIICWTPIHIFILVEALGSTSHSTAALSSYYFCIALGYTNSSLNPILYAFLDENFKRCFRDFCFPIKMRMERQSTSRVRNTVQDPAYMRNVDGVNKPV
T2 sequence (P41144 whole entry): as above
T7 sequence (A0A286XTF2 1-366): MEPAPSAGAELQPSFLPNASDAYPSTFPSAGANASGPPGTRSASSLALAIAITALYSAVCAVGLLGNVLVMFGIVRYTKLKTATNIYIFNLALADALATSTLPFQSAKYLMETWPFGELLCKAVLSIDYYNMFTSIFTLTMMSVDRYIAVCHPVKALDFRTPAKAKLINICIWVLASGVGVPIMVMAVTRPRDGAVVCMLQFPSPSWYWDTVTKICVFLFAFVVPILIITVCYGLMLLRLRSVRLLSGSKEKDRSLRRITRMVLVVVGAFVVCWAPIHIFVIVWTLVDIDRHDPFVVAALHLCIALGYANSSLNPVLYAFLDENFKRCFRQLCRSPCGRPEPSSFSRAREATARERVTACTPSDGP
T4 sequence (P32300 whole entry): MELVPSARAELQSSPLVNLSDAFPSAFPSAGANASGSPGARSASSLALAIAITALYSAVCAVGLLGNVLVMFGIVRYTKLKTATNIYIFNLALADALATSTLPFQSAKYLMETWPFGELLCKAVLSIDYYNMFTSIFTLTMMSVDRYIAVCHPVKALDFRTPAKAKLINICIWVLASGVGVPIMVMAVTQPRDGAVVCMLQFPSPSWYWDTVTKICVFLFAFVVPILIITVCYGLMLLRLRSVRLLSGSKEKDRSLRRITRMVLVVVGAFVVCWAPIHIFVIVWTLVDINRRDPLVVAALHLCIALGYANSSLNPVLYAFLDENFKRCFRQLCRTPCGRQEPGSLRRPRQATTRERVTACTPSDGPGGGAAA
Chain of μ receptor (guinea pig ileum) (A0ACM8Q262 1-400): as the sequence (A0ACM8Q262 1-400) above

## Oc1ccc2c3c1O[C@H]1c4[nH]c5ccccc5c4C[C@@]4(O)C(C2)N(CC2CC2)CC[C@]314 [1, NTI, reference compound]
μ receptor [1]
  Ki: 3.21 ± 0.2 nM
κ receptor [2]
  Ki: 8.85 ± 0.8 nM

## Oc1ccc2c3c1OC1c4ncccc4CC4(O)C(C2)N(CC2CC2)CCC314 (stereo not shown) [2a]
[3]; PL-017 as agonist
  antagonist activity GPI (μ) Ke: 190 ± 65 nM
[3]; percentage inhibition of contraction at 1 μM
  agonist activity GPI (μ) % max resp: 0%
Opioid κ receptor [4]
  selectivity ratio κ/δ: 11
[5]
  antagonist activity MVD (δ) Ke: 37.0 ± 1.0 nM
[6]
  agonist activity MVD (δ) % max resp: 0%
Opioid μ receptor [7]
  selectivity ratio μ/δ: 1.9

## CN1CC[C@]23c4c5ccc(O)c4O[C@H]2c2ncc(-c4ccccc4)cc2C[C@@]3(O)[C@H]1C5 [7c, 6,7-Didehydro-3,14-dihydroxy-4,5α-epoxy-17-methyl-5′-phenylpyrido[2′,3′:6,7]morphinan]
Opioid κ receptor [8]
  selectivity ratio κ/δ: 124
  Ki: 360 ± 17 nM
μ receptor [1]
  Ki: > 1000 nM
Opioid δ receptor; [18]
  Ki: 2.9 ± 0.12 nM
[9]
  IC50: 213 ± 55.8 nM
δ receptor [10]
  IC50: 920 nM
μ receptor [11]
  Emax: 27%
δ receptor [12]
  maximum percentage inhibition of SNC-80 stimulated [35S]GTP-γ-S binding: 61±3%
mice; icv, 100 nmol, mouse tail-flick
  % nociception @ 100 nmol: 64% @ 100 nmol
mice; icv, mouse tail-flick
  factor that prevented determining the A50 value: lack of efficacy
mice
  naloxone sensitivity: no
other
  melting point: 190 to 192 °C
Opioid μ receptor [13]
  selectivity ratio μ/δ: 9
  Ki: 26 ± 0.96 nM

## CN1CC[C@]23c4c5ccc(O)c4O[C@H]2c2ncc(-c4ccc(Cl)cc4)cc2C[C@@]3(O)[C@H]1C5 [7d, 5′-(4-Chlorophenyl)-6,7-didehydro-3,14-dihydroxy-4,5α-epoxy-17-methylpyrido[2′,3′:6,7]morphinan]
Opioid κ receptor [8]
  selectivity ratio κ/δ: 118
  Ki: 468 ± 17 nM
μ receptor [1]
  Ki: > 1000 nM
Opioid δ receptor
  Ki: 3.96 ± 0.23 nM
δ receptor [10]
  Ki: 17 nM
[14]
  Kb: 38.2 ± 14.7 nM
  antagonist activity MVD (δ) Ke: 38 nM
mice; icv, mouse tail-flick
  % nociception @ 300 nmol: 43% @ 300 nmol
  factor that prevented determining the A50 value: lack of potency
mice
  naloxone sensitivity: partial
κ receptor [2]
  Ki: 767 ± 54 nM
other
  melting point: 196 to 198 °C
Opioid μ receptor [13]
  selectivity ratio μ/δ: 58
  Ki: 230 ± 10 nM

## CN1CCC23c4c5ccc(O)c4OC2c2ncc(-c4ccc(Br)cc4)cc2CC3(O)C1C5 (stereo not drawn) [7e, 5′-(4-Bromophenyl)-6,7-didehydro-3,14-dihydroxy-4,5α-epoxy-17-methylpyrido[2′,3′:6,7]morphinan]
Opioid κ receptor [8]
  selectivity ratio κ/δ: 108
Opioid κ receptor [15]
  Ki: 432 ± 18 nM
Opioid δ receptor
  Ki: 4 ± 0.3 nM
Opioid μ receptor [16]
  Ki: 196 ± 4 nM
other
  melting point: 196 to 198 °C
Opioid μ receptor [13]
  selectivity ratio μ/δ: 49

## CN1CC[C@]23c4c5ccc(O)c4O[C@H]2c2ncc(-c4ccc(Cl)c(Cl)c4)cc2C[C@H]3[C@H]1C5 [7j, 5′-(3,4-Dichlorophenyl)-6,7-didehydro-4,5α-epoxy-3-hydroxy-17-methylpyrido[2′,3′:6,7]morphinan]
Opioid κ receptor [8]
  selectivity ratio κ/δ: 75
  Ki: 278 ± 7 nM
μ receptor [1]
  Ki: > 1000 nM
Opioid δ receptor; [18]
  Ki: 3.7 ± 0.14 nM
[9]
  IC50: 489 ± 164 nM
δ receptor [10]
  IC50: 74 nM
μ receptor [11]
  Emax: 63 ± 3%
δ receptor [12]
  maximum percentage inhibition of SNC-80 stimulated [35S]GTP-γ-S binding: 58±3%
mice; icv, mouse tail-flick
  % nociception @ 300 nmol: 44% @ 300 nmol
  factor that prevented determining the A50 value: lack of efficacy
κ receptor [2]
  IC50: 4770 nM
other
  melting point: 184 to 186 °C
Opioid μ receptor [13]
  selectivity ratio μ/δ: 25
  Ki: 93 ± 4 nM
κ receptor [17]
  maximum inhibition at the κ receptors: 66±6%

## CN1CC[C@]23c4c5ccc(O)c4O[C@H]2c2ncc(-c4ccc(Cl)cc4Cl)cc2C[C@H]3[C@H]1C5 [7k, 5′-(2,4-Dichlorophenyl)-6,7-didehydro-4,5α-epoxy-3-hydroxy-17-methylpyrido[2′,3′:6,7]morphinan]
Opioid κ receptor [8]
  selectivity ratio κ/δ: 366
  Ki: 403 ± 9 nM
μ receptor [1]
  Ki: > 1000 nM
Opioid δ receptor
  enhancement in binding affinity at the δ receptor relative to 7h: 4 fold
Opioid δ receptor; [18]
  Ki: 1.1 nM
δ receptor [10]
  Ki: 1.08 ± 0.11 nM
μ receptor [11]
  Emax: 51 ± 5%
[14]
  Kb: 5.02 ± 1.56 nM
  antagonist activity MVD (δ) Ke: 5 nM
δ receptor [12]
  improvement in antagonist potency at the δ receptor relative to 7h: 10 fold
mice; icv, 60 nmol, mouse tail-flick
  % nociception @ 60 nmol: 40% @ 60 nmol^e
mice; icv, mouse tail-flick
  factor that prevented determining the A50 value: lack of efficacy
other
  melting point: 198 to 200 °C
Opioid μ receptor [13]
  selectivity ratio μ/δ: 88
  Ki: 97 ± 4 nM
κ receptor [17]; read-out: antagonist activity apparent Ki (nM ± SD) κ
  Ki: 308 ± 21 nM

## COc1ccc2c3c1OC1c4ncc(-c5ccccc5)cc4CC4(O)C(C2)N(C)CCC314 (stereo not drawn) [7n, 6,7-didehydro-4,5α-epoxy-14-hydroxy-3-methoxy-17-methyl-5′-phenylpyrido[2′,3′:6,7]-morphinan]
Opioid κ receptor [8]
  selectivity ratio κ/δ: >294
Opioid κ receptor [15]
  Ki: > 10000 nM
Opioid δ receptor
  Ki: 34 ± 0.63 nM
Opioid μ receptor [16]
  Ki: 894 ± 19 nM
other
  melting point: > 250 °C
Opioid μ receptor [13]
  selectivity ratio μ/δ: 26

## COc1ccc2c3c1OC1c4ncc(-c5ccc(Br)cc5)cc4CC4(O)C(C2)N(C)CCC314 (stereo not drawn) [7p, 5′-(4-bromophenyl)-6,7-didehydro-4,5α-epoxy-14-hydroxy-3-methoxy-17-methyl-pyrido[2′,3′:6,7]morphinan]
Opioid κ receptor [8]
  selectivity ratio κ/δ: 320
Opioid κ receptor [15]
  Ki: 7370 ± 522 nM
Opioid δ receptor
  Ki: 23 ± 1.3 nM
Opioid μ receptor [16]
  Ki: 1890 ± 72 nM
other
  melting point: > 230 °C
Opioid μ receptor [13]
  selectivity ratio μ/δ: 82

Reference: US7541364B2, “Pyridomorphinans, pyridazinomorphinans and use thereof” (priority 2003, dated 2009)
